Data on eleven compounds can be found in patent US20260000676A1, “CHROMAN DERIVATIVES AS ESTROGEN RECEPTOR DEGRADERS” (THE REGENTS OF THE UNIVERSITY OF MICHIGAN, priority 2022, published 2026).

A word on the DC50: it is the concentration giving 50% degradation. For orientation: Dmax means the greatest extent of degradation seen.

Structures can show the parent of a compound that is named as a salt. Bounds are passed on as bounds.

One assay addresses ERα_LBD(GST) (Homo sapiens (Human), UniProt P03372). The experiment in a line: LanthaScreen TR-FRET ERα competitive binding assay. The following applies: read-out: ERα HTRF IC50. In a few lines:
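GST-tagged ERα LBD (4 nM) with Tb anti-GST (2 nM) and Fluormone ES2 Green tracer (3 nM) in nuclear receptor buffer K plus 5 mM DTT, 1% DMSO; 3-fold compound dilutions, 60 min at room temperature in the dark. TR-FRET 520/495 nm ratio vs log[ligand], sigmoidal fit for IC50; 1 μM ARV_471 as full-inhibition control.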
For orientation: Time-resolved FRET reads energy transfer from a long-lived donor to a nearby acceptor.

Assay [1] addresses T1, ER (Homo sapiens (Human), UniProt P03372). Kind of assay: In-cell western (ICW) ER degradation assay in T47D cells. The assay is classed as cell-based. As to conditions: 16 hrs; for DC50: ER degradation.
The target of assay [2] is T1, ER. The experiment in a line: In-cell western (ICW) ER degradation assay in MCF-7 cells. The format is cell-based. As to conditions: MCF7, 16 hrs; for DC50: ER degradation; for MCF7 Dmax %: maximal ER degradation; for Dmax: MCF7, maximal ER degradation.
The next assay deals with MCF-7 cells. Kind of assay: cells. The following applies: Homo sapiens, MCF7, 144 h, read-out: MCF7 Proliferation IC50 (nM).
The subject of a further assay is T47D cells. Kind of assay: cells. As to conditions: Homo sapiens, 144 h, read-out: T47D Proliferation IC50 (nM).
The target of the next assay is CRBN/DDB1 (Homo sapiens (Human), UniProt Q96SW2). Kind of assay: HTRF binding assay to CRBN/DDB1. As to conditions: read-out: CRBN HTRF IC50. The method, then:
The binding potency was determined using HTRF assay technology (Perkin Elmer). Compounds were serially diluted in DMSO and 0.2 μL volume was transferred to white 384-well plate.

Sequence of ERα_LBD(GST) (P03372 311-547): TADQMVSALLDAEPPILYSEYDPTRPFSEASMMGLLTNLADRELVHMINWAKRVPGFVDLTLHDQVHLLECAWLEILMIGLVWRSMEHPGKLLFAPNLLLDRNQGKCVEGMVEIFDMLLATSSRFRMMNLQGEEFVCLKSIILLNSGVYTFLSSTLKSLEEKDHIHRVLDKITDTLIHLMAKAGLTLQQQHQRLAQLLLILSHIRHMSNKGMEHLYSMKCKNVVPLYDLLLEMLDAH
T1 sequence (P03372 whole entry): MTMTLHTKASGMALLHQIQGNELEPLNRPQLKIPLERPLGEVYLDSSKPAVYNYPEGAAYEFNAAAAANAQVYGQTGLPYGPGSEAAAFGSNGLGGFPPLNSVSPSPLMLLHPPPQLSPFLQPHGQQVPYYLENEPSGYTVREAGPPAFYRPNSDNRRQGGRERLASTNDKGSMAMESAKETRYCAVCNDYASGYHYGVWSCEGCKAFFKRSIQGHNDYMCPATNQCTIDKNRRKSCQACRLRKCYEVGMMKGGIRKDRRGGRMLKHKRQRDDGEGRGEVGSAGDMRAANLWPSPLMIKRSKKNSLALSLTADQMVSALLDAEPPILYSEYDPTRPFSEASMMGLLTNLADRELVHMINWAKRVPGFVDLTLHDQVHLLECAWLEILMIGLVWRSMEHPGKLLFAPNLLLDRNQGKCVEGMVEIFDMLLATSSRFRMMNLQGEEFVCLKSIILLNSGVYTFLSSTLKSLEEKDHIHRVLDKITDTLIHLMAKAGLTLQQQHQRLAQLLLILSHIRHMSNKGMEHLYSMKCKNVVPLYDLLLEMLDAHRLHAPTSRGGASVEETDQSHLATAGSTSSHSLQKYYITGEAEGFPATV
Sequence of CRBN/DDB1 (Q96SW2 whole entry): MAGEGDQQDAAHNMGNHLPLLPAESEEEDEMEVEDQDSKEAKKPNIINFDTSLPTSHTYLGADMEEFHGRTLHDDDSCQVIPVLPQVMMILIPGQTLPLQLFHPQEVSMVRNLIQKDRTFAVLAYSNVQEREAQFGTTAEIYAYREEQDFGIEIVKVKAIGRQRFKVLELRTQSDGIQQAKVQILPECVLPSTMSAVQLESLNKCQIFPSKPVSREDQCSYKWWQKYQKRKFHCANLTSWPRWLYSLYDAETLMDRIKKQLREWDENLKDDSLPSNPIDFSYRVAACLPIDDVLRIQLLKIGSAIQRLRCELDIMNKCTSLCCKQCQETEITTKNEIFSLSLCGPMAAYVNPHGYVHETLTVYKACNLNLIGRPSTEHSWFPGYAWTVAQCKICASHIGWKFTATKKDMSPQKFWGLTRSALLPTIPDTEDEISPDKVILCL
Sequence of CRBN/DDB1 (Q16531 whole entry partner): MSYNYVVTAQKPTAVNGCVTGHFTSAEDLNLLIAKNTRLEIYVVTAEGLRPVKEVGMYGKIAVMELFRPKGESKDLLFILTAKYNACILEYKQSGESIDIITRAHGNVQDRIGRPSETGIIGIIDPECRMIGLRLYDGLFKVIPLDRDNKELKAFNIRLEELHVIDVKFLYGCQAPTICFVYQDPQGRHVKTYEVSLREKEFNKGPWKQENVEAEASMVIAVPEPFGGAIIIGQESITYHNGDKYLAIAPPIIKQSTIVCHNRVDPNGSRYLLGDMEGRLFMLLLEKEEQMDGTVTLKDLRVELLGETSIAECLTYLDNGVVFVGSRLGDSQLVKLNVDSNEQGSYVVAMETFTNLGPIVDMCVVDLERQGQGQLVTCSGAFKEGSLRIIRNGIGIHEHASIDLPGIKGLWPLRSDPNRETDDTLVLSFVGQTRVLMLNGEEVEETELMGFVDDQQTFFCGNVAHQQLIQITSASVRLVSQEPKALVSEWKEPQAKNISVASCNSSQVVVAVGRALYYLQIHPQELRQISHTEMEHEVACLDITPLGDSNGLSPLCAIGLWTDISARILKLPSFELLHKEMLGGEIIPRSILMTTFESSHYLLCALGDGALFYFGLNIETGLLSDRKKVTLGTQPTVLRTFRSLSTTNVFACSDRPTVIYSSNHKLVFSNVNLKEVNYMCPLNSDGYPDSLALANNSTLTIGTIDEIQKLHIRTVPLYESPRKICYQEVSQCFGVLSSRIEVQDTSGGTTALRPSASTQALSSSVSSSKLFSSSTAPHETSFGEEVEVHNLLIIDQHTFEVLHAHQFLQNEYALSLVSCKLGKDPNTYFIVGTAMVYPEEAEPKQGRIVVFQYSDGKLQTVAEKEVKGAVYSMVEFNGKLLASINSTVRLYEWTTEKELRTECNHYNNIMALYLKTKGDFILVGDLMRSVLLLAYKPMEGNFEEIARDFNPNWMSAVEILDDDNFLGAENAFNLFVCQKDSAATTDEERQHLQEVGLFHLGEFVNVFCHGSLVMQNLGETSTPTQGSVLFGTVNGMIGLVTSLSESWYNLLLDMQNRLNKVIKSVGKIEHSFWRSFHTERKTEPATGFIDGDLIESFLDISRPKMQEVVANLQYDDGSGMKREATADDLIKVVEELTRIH

On to `O=C1CCC(N2Cc3cc4c(cc3C2=O)OC[C@@H]2CN(CC3CCC5(CC3)CN(c3ccc([C@@H]6c7ccc(O)cc7OC[C@@H]6c6ccccc6)cc3)C5)CCN42)C(=O)N1` (single isomer, unassigned) [Compound A58], for which the IC50 is less than 5 nM at ERα_LBD(GST), 50 to 500 nM in the assay with MCF-7 cells, 50 to 500 nM with T47D cells and 500 to 5000 nM on CRBN/DDB1. Moreover, the DC50 on ER [1] and on ER [2] was 1 to 10 nM throughout. The “T47D Dmax %” value on ER [1] (maximal ER degradation) is “B (“B”: >50% and <75%)”. The “MCF7 Dmax %” value on ER [2] is “C (“C”: 25%-50%)”.
`O=C1CC[C@@H](N2Cc3cc4c(cc3C2=O)OC[C@H]2CN(CC3CCC5(CC3)CN(c3ccc([C@H]6c7ccc(O)cc7OC[C@H]6c6ccccc6)cc3)C5)CCN42)C(=O)N1` (single isomer, unassigned) [Compound A118]: the IC50 at ERα_LBD(GST) is less than 5 nM; with MCF-7 cells it was 50 to 500 nM; in the assay on T47D cells, 50 to 500 nM. Besides, the 50% degradation concentration (DC50) on ER [1] and on ER [2] was 1 to 10 nM each time. In addition, the Dmax at ER [1] (maximal ER degradation) and on ER [2] was no less than 75% throughout.
As to `O=C1CC[C@@H](N2Cc3cc4c(cc3C2=O)OC[C@H]2CN(CC3COC5(CCN(c6ccc([C@H]7c8ccc(O)cc8OC[C@H]7c7ccccc7)cc6)CC5)C3)CCN42)C(=O)N1` (stereo partly drawn) [Compound A138, (3R)-3-((4aR)-3-((8-(4-((3R,4S)-7-hydroxy-3-phenylchroman-4-yl)phenyl)-1-oxa-8-azaspiro[4.5]decan-3-yl)methyl)-8-oxo-1,2,3,4,4a,5,8,10-octahydro-9H-pyrazino[1′,2′:4,5][1,4]oxazino[2,3-f]isoindol-9-yl)piperidine-2,6-dione], the IC50 was less than 5 nM at ERα_LBD(GST), less than 50 nM with MCF-7 cells, less than 50 nM in the assay with T47D cells and 50 to 500 nM at CRBN/DDB1. For the same compound, the DC50 at ER [1] and on ER [2] was less than 1 nM in each case. Moreover, the Dmax is 50 to 75% at ER [1] (maximal ER degradation) and no less than 75% at ER [2].
`O=C1CC[C@H](N2Cc3c(ccc4c3OC[C@H]3CN(CC5CCC6(CC5)CN(c5ccc([C@@H]7c8ccc(O)cc8OC[C@@H]7c7ccccc7)cc5)C6)CCN43)C2=O)C(=O)N1` (single isomer, unassigned) [Compound A115]: the IC50 is less than 5 nM on ERα_LBD(GST), 50 to 500 nM in the assay on MCF-7 cells, 50 to 500 nM in the assay on T47D cells and 50 to 500 nM at CRBN/DDB1. In addition, the DC50 on ER [1] and on ER [2] was less than 1 nM in each case. In addition, the Dmax on ER [1] (maximal ER degradation) and at ER [2] was no less than 75% in each case.
Turning to `O=C1CC[C@@H](N2Cc3c(ccc4c3OCC43CCN(CC4CCC5(CC4)CN(c4ccc([C@H]6c7ccc(O)cc7OC[C@H]6c6ccccc6)cc4)C5)CC3)C2=O)C(=O)N1` [Compound A154, (R)-3-(1′-((2-(4-((3R,4S)-7-hydroxy-3-phenylchroman-4-yl)phenyl)-2-azaspiro[3.5]nonan-7-yl)methyl)-6-oxo-6,8-dihydro-2H,7H-spiro[furo[2,3-e]isoindole-3,4′-piperidin]-7-yl)piperidine-2,6-dione], the IC50 on ERα_LBD(GST) is less than 5 nM; with MCF-7 cells it was less than 50 nM; with T47D cells, less than 50 nM; on CRBN/DDB1 it was less than 50 nM. Also, the DC50 at ER [1] and on ER [2] was less than 1 nM in each case. For the same compound, the Dmax on ER [1] (maximal ER degradation) was no less than 75%; at ER [2], 50 to 75%.
With `COc1cc(N2CCC(CN3CCC(c4ccc(N[C@@H]5CCC(=O)NC5=O)cc4)CC3)CC2)ccc1[C@@H]1c2ccc(O)cc2OC[C@@H]1c1ccccc1` [Compound A150, (R)-3-((4-(1-((1-(4-((3S,4R)-7-hydroxy-3-phenylchroman-4-yl)-3-methoxyphenyl)piperidin-4-yl)methyl)piperidin-4-yl)phenyl)amino)piperidine-2,6-dione], the IC50 on ERα_LBD(GST) was less than 5 nM; in the assay on MCF-7 cells it was 50 to 500 nM; in the assay with T47D cells, 50 to 500 nM. Also, the DC50 on ER [1] and at ER [2] was less than 1 nM in each case. The Dmax at ER [1] (maximal ER degradation) and at ER [2] was 25 to 50% throughout.
For `O=C1CCC(N2Cc3cc4c(cc3C2=O)CN(C(=O)CN2CC3(CCN(c5ccc([C@H]6c7ccc(O)cc7OC[C@H]6c6ccccc6)cc5)CC3)C2)C4)C(=O)N1` (stereo partly drawn) [Compound A56, 3-(6-(2-(7-(4-((3R,4S)-7-hydroxy-3-phenylchroman-4-yl)phenyl)-2,7-diazaspiro[3.5]nonan-2-yl)acetyl)-1-oxo-3,5,6,7-tetrahydropyrrolo[3,4-f]isoindol-2(1H)-yl)piperidine-2,6-dione formate], the DC50 on ER [1] is less than 1 nM; on ER [2] (formate), 1 to 10 nM. The Dmax at ER [1] (maximal ER degradation) was no less than 75%. The “MCF7 Dmax %” value on ER [2] (formate) is “B (“B”: >50% and <75%)”. Also, the IC50 was less than 50 nM with MCF-7 cells, less than 50 nM with T47D cells and 50 to 500 nM at CRBN/DDB1.
Consider `O=C1CCC(N2Cc3c(ccc4c3OCC43CCN(CC4CCC5(CC4)CN(c4ccc([C@@H]6c7ccc(O)cc7OC[C@@H]6c6ccccc6)cc4)C5)CC3)C2=O)C(=O)N1` (stereo partly drawn) [Compound A114, 3-(1′-((2-(4-((3S,4R)-7-hydroxy-3-phenylchroman-4-yl)phenyl)-2-azaspiro[3.5]nonan-7-yl)methyl)-6-oxo-6,8-dihydro-2H,7H-spiro[furo[2,3-e]isoindole-3,4′-piperidin]-7-yl)piperidine-2,6-dione], for which the DC50 at ER [1] and on ER [2] was less than 1 nM throughout. Besides, the Dmax on ER [1] (maximal ER degradation) and on ER [2] was no less than 75% throughout. For the same compound, the IC50 with MCF-7 cells, with T47D cells and on CRBN/DDB1 was less than 50 nM throughout.
With `COc1cc(C(=O)NC2CCC(=O)NC2=O)ncc1N1CCN(CC2CC3(CCN(c4ccc([C@H]5c6ccc(O)cc6OC[C@H]5c5ccccc5)cc4)CC3)C2)CC1` (single isomer, unassigned) [Compound A116], the DC50 at ER [1] and at ER [2] was less than 1 nM each time. For the same compound, the Dmax on ER [1] (maximal ER degradation) and on ER [2] was 50 to 75% each time. For the same compound, the IC50 with MCF-7 cells was less than 50 nM; in the assay with T47D cells it was 50 to 500 nM; on CRBN/DDB1 it was 500 to 5000 nM.
Turning to `O=C1CC[C@@H](N2Cc3cc4c(cc3C2=O)OCC2CN(CC3CCC5(CC3)CN(c3ccc([C@H]6c7ccc(O)cc7OC[C@H]6c6ccccc6)cc3)C5)CCN42)C(=O)N1` (stereo in doubt) [Compound A120, (R)-3-((R)-3-((2-(4-((3R,4S)-7-hydroxy-3-phenylchroman-4-yl)phenyl)-2-azaspiro[3.5]nonan-7-yl)methyl)-8-oxo-1,2,3,4,4a, 5,8,10-octahydro-9H-pyrazino[1′,2′:4,5][1,4]oxazino[2,3-f]isoindol-9-yl)piperidine-2,6-dione], the IC50 at ERα_LBD(GST) was less than 5 nM; with MCF-7 cells, 50 to 500 nM; in the assay with T47D cells, 50 to 500 nM. The DC50 on ER [1] was less than 1 nM; at ER [2] it was 1 to 10 nM. Further, the Dmax on ER [1] (maximal ER degradation) and at ER [2] was no less than 75% throughout.
With `O=C1CCC(Nc2ccc(N3CCN(CC4CC5(CCN(c6ccc([C@H]7c8ccc(O)cc8OC[C@H]7c7ccccc7)cc6)CC5)C4)CC3)c(F)c2)C(=O)N1` (single isomer, unassigned) [Compound A51], the DC50 at ER [1] and at ER [2] was less than 1 nM each time. The Dmax on ER [1] (maximal ER degradation) and at ER [2] was 25 to 50% throughout. The values for the IC50 in the assay with MCF-7 cells, with T47D cells and at CRBN/DDB1 were 50 to 500 nM, 50 to 500 nM and 500 to 5000 nM, respectively.
